Experimental data reported in publication PMC3472544, “Glycosaminoglycan analogs as a novel anti-inflammatory strategy” (Frontiers in Immunology, 2012).
Entries after “also recorded” stand apart in the source; their conditions may differ.

Columns and labels:
CCL5 binding to heparin = molecular target: T1, CCL5 binding to heparin (Homo sapiens, UniProt P13501); assay: Immobilized heparin competition binding assay ([125I]-CCL5 on heparin-Sepharose beads); settings: [125I]-CCL5 0.05 nM, 4 h, read-out: IC50 for the inhibition of CCL5 binding to heparin
T1 sequence (P13501 24-91): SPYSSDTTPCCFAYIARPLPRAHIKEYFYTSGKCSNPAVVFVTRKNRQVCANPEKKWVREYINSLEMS
Protocol: Competition experiments were performed as described elsewhere (Severin et al., [2010]). Briefly, heparin-Sepharose beads (Sepharose beads or binding buffer as a background control) and increasing amounts of antagonist were added to each well of a 96 well filter plate. [^125I]-CCL5, was added last, to reach a final concentration of 0.05 nM. The plates were incubated on a shaker at room temperature for 4 h. Each experiment was performed in triplicate, and the results are given as the mean of the three assays.

[1] = system: citrated plasma from healthy human blood donors; assay: Anti-coagulation assay: Activated Partial Thromboplastin Time (APTT)
Protocol: Activated Partial Thromboplastin Time (APTT) assays were performed by GlycoMar. 10 mg/ml stock solutions of NisS, StachS, and MHxS, were prepared using dH2O and stored at −20°C until use. Samples were tested at 1 mg/ml. All further dilutions were in dH2O. Prior to each assay, a calibration curve of heparin ranging from 0 to 10 IU/ml was prepared using 5th International Standard Heparin. (GlycoMar ID:92, batch 97/578, Expiry 21SEP10). Fresh human blood from healthy human blood donors was collected into S-Monovette Coagulation tubes from Sarstedt. Nine parts of freshly drawn venous blood were collected into one part trisodium citrate (0.106 M). Plasma was obtained by centrifugation at 1500 × g for 10 min. Each of the carbohydrate samples was diluted and tested at 1 mg/ml in the first instance. MHxS was subsequently tested at 0.1 mg/ml to be within the time frame of the standard curve. The APTT assay was run on an ACL 9000 Coagulation Analyzer. The coagulation time of HemosIL Normal Control (cat no. 0020003110) was checked. Samples, standards and controls were mixed 1:10 with citrated plasma in a test tube, loaded into the ACL 9000 carousel and analyzed using the extended APTT run program.

[2] = system: thioglycollate-induced cellular recruitment into the peritoneal cavity; assay: Thioglycollate-induced peritoneal cellular recruitment; assay type: in vivo, C3H/Hen mice; settings: thioglycollate i.p.; compound i.p. 30 min before and 24 h later; cells counted at 48 h (Figure 4C, D)
Protocol: CCL5-induced peritoneal recruitment was performed as described (Johnson et al., [2004]). Thioglycollate-induced cellular recruitment was mediated by the administration of 40 mL/kg of 3% thioglycollate i.p. in 7- to 8-week-old female C3H/Hen mice (JANVIER). Sham mice were injected with 40 mL/kg of NaCl (0.9%, LPS free). Saline (vehicle, control group) or Maltohexaose Sulfate at doses ranging from 1 to 0.01 mg/kg diluted in a volume ratio of 10 mL/kg and were administered i.p. 30 min before the thioglycollate stimulus, and 24 h later. An additional group of mice was injected with a single dose of 3 mg/kg dexamethasone 1 h before challenge as a reference control. Mice were sacrificed 48 h post-thioglycollate injection, the peritoneal cavity was washed twice with 5 mL of […] EDTA solution in PDB, pH 7.4. The peritoneal lavage fluid was centrifuged and resuspended in 1 mL of the solution and recruited cells were counted with a cell counter (Beckman-Coulter, ACT5Diff AD32097).
Figure 4 Inhibition of peritoneal cellular recruitment. Cellular recruitment into the peritoneal cavity was induced by CCL5 (A) and (B) and inhibited by different doses of CCL5 binders administered 30 min prior to the CCL5 administration. […]

[3] = system: paw thickness after SRBC challenge; assay: Delayed-type hypersensitivity (DTH) model, SRBC; assay type: in vivo, BALB/c mice
Protocol: Female BALB/c mice were immunized with 2 × 10^6 sheep red blood cells (SRBC) by subcutaneous route (s.c.) at the base of the tail. Five days later mice were challenged with an s.c. injection of 2 × 10^6 SRBC into the softpaw of the left hindpaw. The paw thickness was measured 21 h later and the difference calculated based on values obtained before challenge. MHxS, NisS, and StachS were injected s.c. at a dose of 10 mg/kg, 30 min before and 8 h after challenge. Vehicle was 0.02% BSA diluted in PBS. The reference compound, dexamethasone, was diluted in saline and administered by oral gavage 30 min before challenge. Group sizes were 6 for sham and 8 for all other groups.
Figure 5 Inhibition of delayed-type hypersensitivity. Immunization was performed by s.c. administration of SRBC, followed by a challenge in the hindpaw 5 days later. The persulfated oligosaccharides (10 mg/kg) were administered 30 min prior and 8 h after the challenge. Dexamethasone was used as a positive control, and paw thickness was measured 21 h following the challenge. The statistical differences vs. the control group (mice challenged with SRBC and treated with vehicle for the compounds 0.02% BSA diluted in PBS) are shown whenever present and indicated by ^*P <0.05>; ^***P < 0.001. TEXT PRINTED IN THE PICTURE: dexamethasone: 47% *** | MHxS: 39% *** | NisS: 20% * | StachS: 41% ***

[4] = system: leukocyte recruitment into the synovial (knee) cavity; assay: Antigen-induced arthritis (AIA) model, mBSA; assay type: in vivo, mice; settings: 50 μg s.c. immediately after mBSA; cells counted at 24 h
Protocol: Induction of disease was performed by injection of 10 μg methylated bovine serum albumin (mBSA) as a 10 μL injection into the synovial cavity. Test compounds, at a total dose of 50 μg were injected in a total volume of 200 μL subcutaneously immediately after mBSA administration. Group sizes were 4–6 animals. Total leukocytes (A), neutrophils (B), and mononuclear cells (C) in the synovial cavity were enumerated 24 h after mBSA injection (Sachs et al., [2011]).
Figure 6 Inhibition of antigen induced arthritis. An injection of mBSA into the synovial cavity was used to induce disease. 50 μg of the inhibitors were administered s.c. immediately after the mBSA injection, and the cells in the synovial cavity were enumerated 24 h later. (A) Total cells; (B) […]; (C) mononuclear cells. ^*P < 0.05.

CCR1 (Homo sapiens) = molecular target: T2, CCR1 (Homo sapiens); assay: Equilibrium competition receptor binding assay (SPA), [125I]-CCL5 on CHO/CCR1 membranes; settings: [125I]-CCL5 0.1 nM, CHO/CCR1 membranes, SPA; read-out: IC50 for the inhibition of CCL5 binding to CCR1
T2 construct: expressed in transfected cells; host or cells: CHO
Protocol: (§1) The assays were carried out on membranes from CHO transfectants expressing CCR1 or CCR5, as described previously (Severin et al., [2010]). Briefly, serial dilutions of the compounds were prepared in binding buffer (50 mM TrisHCl, pH 7.2, containing 1 mM CaCl2, 5 mM MgCl2, and 0.5% BSA). Equal volumes of membrane preparation at 80 μg/ml and scintillation proximity assay (SPA) beads were mixed before adding them to a 96 well filter plate, giving a final membrane concentration in the assay of 20 μg/ml. ^125I labeled chemokines were dissolved in binding buffer at a concentration of 0.4 nM. The assay was started by the addition of 25 μL [^125I]-CCL5 to give a concentration of 0.1 nM, in a final assay volume of 100 μL. The plates were incubated for 4 h. Radioactivity was counted with a beta counter for 1 min/well and the data analyzed using Graphpad Prism software. The radioligand was stored at −20°C and was used until the cpm of bound chemokine was ≥ 300 cpm.

CCR1 = molecular target: T3, CCR1 (Homo sapiens, UniProt P13501); assay: as above; settings: relative to Molecule 1
T3 construct: expressed in transfected cells; host or cells: CHO
T3 sequence (P13501 24-91): T1 sequence (P13501 24-91)
Protocol: as §1

[5] = system: CCL5-induced cellular recruitment into the peritoneal cavity; assay: CCL5-induced peritoneal cellular recruitment; assay type: in vivo, mouse; settings: CCL5 binders administered 30 min prior to CCL5 (Figure 4A, B)

Compound	IC50 (CCL5 binding to heparin) [nM]	Anticoagulant activity (heparin-equivalent) ([1]; calibrated against heparin standard curve, samples at 1 mg/ml (MHxS 0.1 mg/ml)) [IU/mg]	anticoagulant potency reduced compared to heparin ([1]; relative to heparin) [fold]	cell recruitment to the peritoneal cavity [2]	reduction of paw thickness compared with dexamethasone ([3]; 10 mg/kg s.c. at −30 min and +8 h)	inhibition of paw thickness, dose-response ([3]; 0.1, 1 and 10 mg/kg at −30 min and +8 h post-challenge, data not shown)	inhibition of paw swelling ([3]; oligosaccharides 10 mg/kg s.c. at −30 min and +8 h, dexamethasone by oral gavage 30 min before challenge, paw thickness at 21 h) [%]	mononuclear cell recruitment into the knee cavity [4]	neutrophil recruitment into the knee cavity [4]	IC50 (CCR1 (Homo sapiens)) [nM]	tighter interaction than Molecule 1 in the CCR1 binding assay (CCR1) [fold]	cell recruitment to the peritoneum [5]
persulfated MHx [MHxS]	1270 ± 670	11.87 ± 3.07	12	enhanced recruitment, albeit moderately	comparable effect	statistically significant inhibitions were shown only for the highest dose	39	statistically significant reduction	statistically significant reduction	–	–	–
O=C(CCCCCCCCCCNS(=O)(=O)c1ccc(O)c(C(=O)O)c1)Nc1cc(C(=O)O)c(O)c(S(=O)(=O)O)c1 [Molecule 3, 5-[(11-{[(3-carboxy-4hydroxyphenyl)sulfonyl]amino}undecanoyl)amino]-2-hydroxy-3-sulfobenzoic acid]	–	–	–	–	–	–	–	–	–	2500	3	enhancement of cell recruitment; also recorded: no inhibition of recruitment, rather an enhancement at the highest dose
